Test results reported in patent publication US8563576B2 (Vertex Pharmaceuticals Incorporated, priority 2008, dated 2013).

Experiments:
Format in all cases: biochemical
PKC theta kinase = PKC theta kinase (Homo sapiens, UniProt Q04759); test: PKC theta kinase coupled-enzyme (NADH consumption) Ki assay; conditions: 240 μM ATP, 18 nM PKC theta kinase, 30° C.
Procedure: (§1) l An assay buffer solution was prepared which consisted of 100 mM HEPES (pH 7.5), 10 mM MgCl2, 25 mM NaCl, 0.1 mM EDTA and 0.01% Brij. […] To 60 μL of this enzyme buffer, in a 384 well plate, was added 2 μL of VRT stock solution in DMSO. The mixture was allowed to equilibrate for 10 mins at 30° C. The enzyme reaction was initiated by the addition of 5 μL stock ATP solution prepared in assay buffer to a final assay concentration of 240 μM. Initial rate data was determined from the rate of change of absorbance at 340 nm (corresponding to stoichiometric consumption of NADH) using a Molecular Devices Spectramax plate reader (Sunnyvale, Calif.) over 15 mins at 30° C. […] Ki values were calculated from initial rate data by non-linear regression using the Prism software package (Prism 4.0a, Graphpad Software, San Diego, Calif.).

PKC delta kinase = PKC delta kinase (Homo sapiens, UniProt Q05655); test: PKC delta kinase coupled-enzyme (NADH consumption) Ki assay; conditions: 150 μM ATP, 46 nM PKC delta kinase, 30° C.
Procedure: as §1, with “An” for “l An”, “To 16” for “To 60”, “added 1” for “added 2”, “of 16” for “of 5”, “of 150” for “of 240”

PKC alpha kinase = PKC alpha kinase (Homo sapiens, UniProt P17252); test: PKC alpha kinase coupled-enzyme (NADH consumption) Ki assay; conditions: 130 μM ATP, 4.5 nM PKC alpha kinase, 30° C.
Procedure: as §1, with “An” for “l An”, “mM EDTA, 100 μM CaCl2” for “mM EDTA”, “To 16” for “To 60”, “added 1” for “added 2”, “of 16” for “of 5”, “of 130” for “of 240”

Sequence of PKC theta kinase (Q04759 whole entry): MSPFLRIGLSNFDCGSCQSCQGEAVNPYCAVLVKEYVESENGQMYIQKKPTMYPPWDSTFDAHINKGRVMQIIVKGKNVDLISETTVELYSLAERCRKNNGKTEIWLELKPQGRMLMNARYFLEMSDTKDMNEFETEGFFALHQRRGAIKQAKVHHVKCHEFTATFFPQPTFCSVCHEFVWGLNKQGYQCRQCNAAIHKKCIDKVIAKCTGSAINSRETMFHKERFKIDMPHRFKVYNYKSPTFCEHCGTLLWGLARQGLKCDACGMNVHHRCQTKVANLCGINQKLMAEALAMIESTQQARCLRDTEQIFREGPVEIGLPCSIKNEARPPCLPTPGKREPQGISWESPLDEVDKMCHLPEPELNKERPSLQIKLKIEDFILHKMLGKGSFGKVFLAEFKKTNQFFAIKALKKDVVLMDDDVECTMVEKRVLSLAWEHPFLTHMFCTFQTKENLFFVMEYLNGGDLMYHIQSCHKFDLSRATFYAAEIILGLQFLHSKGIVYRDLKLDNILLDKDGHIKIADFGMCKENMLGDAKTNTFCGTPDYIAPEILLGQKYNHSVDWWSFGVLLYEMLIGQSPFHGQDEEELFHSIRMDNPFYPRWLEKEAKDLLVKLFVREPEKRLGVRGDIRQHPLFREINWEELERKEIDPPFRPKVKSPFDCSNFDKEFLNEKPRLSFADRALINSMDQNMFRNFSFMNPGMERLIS
Sequence of PKC delta kinase (Q05655 whole entry): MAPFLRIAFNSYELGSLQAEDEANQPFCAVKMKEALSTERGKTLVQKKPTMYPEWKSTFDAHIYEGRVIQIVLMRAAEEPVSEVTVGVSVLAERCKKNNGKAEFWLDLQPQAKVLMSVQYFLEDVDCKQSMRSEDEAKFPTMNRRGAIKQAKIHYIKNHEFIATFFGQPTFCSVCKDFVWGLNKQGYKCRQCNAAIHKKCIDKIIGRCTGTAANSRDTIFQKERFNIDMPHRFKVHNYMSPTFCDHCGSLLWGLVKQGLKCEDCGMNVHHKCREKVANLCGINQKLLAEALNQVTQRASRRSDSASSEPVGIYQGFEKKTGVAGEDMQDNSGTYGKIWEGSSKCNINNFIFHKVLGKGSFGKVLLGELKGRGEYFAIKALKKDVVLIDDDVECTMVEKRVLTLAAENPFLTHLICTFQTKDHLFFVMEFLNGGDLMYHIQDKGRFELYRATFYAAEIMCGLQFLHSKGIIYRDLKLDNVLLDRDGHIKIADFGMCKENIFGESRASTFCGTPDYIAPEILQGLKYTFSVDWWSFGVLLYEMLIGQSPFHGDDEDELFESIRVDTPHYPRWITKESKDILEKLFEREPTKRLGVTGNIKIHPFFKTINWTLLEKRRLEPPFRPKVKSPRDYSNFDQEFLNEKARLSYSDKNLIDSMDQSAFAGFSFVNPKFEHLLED

Compound	Ki (PKC theta kinase) [nM]	Ki (PKC delta kinase) [nM]	Ki (PKC alpha kinase) [nM]
Cc1sc(N2CCCNCC2)nc1-c1n[nH]c2ncccc12 [Compound 1]	> 2800		
Cc1sc(N2CCN[C@@H](CC(C)C)C2)nc1-c1n[nH]c2ncccc12 [Compound 2]	< 500	> 2000	> 1250
c1cnc2[nH]nc(-c3nn(C4CCNCC4)c4ccccc34)c2c1 [Compound 4, 3-(1-(piperidin-4-yl)-1H-indazol-3-yl)-1H-pyrazolo[3,4-b]pyridine]	< 500	< 2800	> 1250
Cc1cn(C2CCNCC2)nc1-c1n[nH]c2ncccc12 [Compound 5, 3-(4-methyl-1-(piperidin-4-yl)-1H-pyrazol-3-yl)-1H-pyrazolo[3,4-b]pyridine]	> 700	> 2000	> 1250

Results, then the compound that gave them:

Ki (PKC theta kinase) [nM]	Ki (PKC delta kinase) [nM]	Ki (PKC alpha kinase) [nM]	Compound
< 50	< 2800	> 1250	CC(C)C[C@H]1CN(c2csc(-c3n[nH]c4ncccc34)n2)CCN1 [Compound 3, (S)-4-(3-isobutylpiperazin-1-yl)-2-(1H-pyrazolo[3,4-b]pyridin-3-yl)thiazole]
> 700	> 2000	> 1250	CC(C)C[C@H]1CN(c2cn(C)c(-c3n[nH]c4ncccc34)n2)CCN1 [Compound 6, 3-(4-((S)-3-isobutylpiperazin-1-yl)-1-methyl-1H-imidazol-2-yl)-1H-pyrazolo[3,4-b]pyridine]
